{"source": "patent EP0052964A1", "about": "“Adenine derivatives possessing pharmacological activity” (BEECHAM GROUP PLC, priority 1980, dated 1982)", "tested_on": "male rats (Sprague-Dawley from Tuck's)", "assay": "hypocholesterolaemic and hypotriglyceridaemic effects in rats fed a sucrose-rich semisynthetic diet containing 0.25% cholesterol", "format": "in vivo", "conditions": "percentage change from control values, compound at 0.1% in diet for 7 days", "procedure": "The hypocholesterolaemic and hypotriglyceridaemic effects of 6-amino-9-[(2-hydroxy-3-thiomorpholino)propyl]purine (Compound 1) and 6-amino-9-([2-hydroxy-3-(2,6-cis-dimethylmorpholino)]propyl)-purine (Compound 2) were assessed as follows.\nGroups of 8 male rats (Sprague-Dawley from Tuck's) weighing 80-100g were adapted to a sucrose-rich semisynthetic diet containing 0.25% cholesterol by progressive dilution over 7 days of a powdered commercially available diet (Oxoid). Compounds were then added to the semisynthetic diet at the level of 0.1% and these diets were fed for 7 days. The rats were then killed and the serum total cholesterol and triglyceride were measured by a Technicon Auto-Analyser. The results are expressed as percentage change from control values.", "data": [{"smiles": "Nc1ncnc2c1ncn2CC(O)CN1CCSCC1", "note": "(stereo not drawn) [Compound 1, 6-amino-9-[(2-hydroxy-3-thiomorpholino)propyl]-purine]", "values": [{"measurement": "Liver wt. as % body wt.", "value": "+1%"}, {"measurement": "Serum Triglyceride", "setting": "* = statistically significant", "value": -8, "unit": "percentage"}, {"measurement": "Serum Cholesterol", "setting": "serum total cholesterol, * = statistically significant", "value": "-57* percentage"}]}]}
